According to patent publication US20170265465A1, “BIORATIONAL TREATMENT PRODUCTS AND METHODS OF USING SAME” (Board of Trustees of Michigan State University, priority 2014, published 2017):

Key:
irrigated putting green [1] = test: Example 15: turfgrass color (chlorophyll) rating, FieldScout CM 1000 Chlorophyll Meter; type: in vivo
Procedure: (§1) The study was established in four replications of a randomized block design utilizing 2 ft.×21 ft. plots with 6 inch alleys. Treatments were initially applied on Sep. 13, 2016 with the same sprayer and under the same conditions described in Example 1. Turfgrass quality ratings and biomass ratings were performed as described in Example 1. The plots were trimmed on September 19, October 8, and Oct. 24, 2016 and clippings were also collected as described in Example 1.
(§2) Treatments were re-applied on Sep. 28, 2016 and Oct. 11, 2016. Turfgrass visual growth and quality ratings were taken periodically, along with turfgrass color ratings as taken with a Spectrum Technologies, Inc. TCM 500 NDVI Color Meter and a Spectrum Technologies, Inc. FieldScout CM 1000 Chlorophyll Meter. The study was irrigated as needed to prevent wilt. No background fertility was applied to the study area. The area was sprayed with 26GT fungicide on Sep. 27, 2016 to control dollar spot disease.
The turfgrass color (chlorophyll) rating of Oct.

irrigated putting green [2] = test: Example 15: visual turfgrass growth rating; type: in vivo; conditions: scale 1-5 (1 = least, 5 = most)
Procedure: as §1, §2

[3] = Trt. 4, 0.1 lb N/1000 sq. ft. /14 days, Oct. 6
[4] = Trt. 5, 0.05 lb N/1000 sq. ft. /14 days, Oct. 6

NC(N)=O [Urea (46-0-0), urea]
Turfgrass Color (Greenness), MEAN, chlorophyll meter reading (irrigated putting green [1]; [3]): 352.5
Turfgrass Color (Greenness), MEAN, chlorophyll meter reading (irrigated putting green [1]; Trt. 4, 0.1 lb N/1000 sq. ft. /14 days, Oct. 25): 272.3
Turfgrass Color (Greenness), MEAN, chlorophyll meter reading (irrigated putting green [1]; [4]): 352.3
Turfgrass Color (Greenness), MEAN, chlorophyll meter reading (irrigated putting green [1]; Trt. 5, 0.05 lb N/1000 sq. ft. /14 days, Oct. 25): 261
Visual Turfgrass Growth, MEAN (irrigated putting green [2]; [3]): 2.5
Visual Turfgrass Growth, MEAN (irrigated putting green [2]; Trt. 4, 0.1 lb N/1000 sq. ft. /14 days, Sept. 19): 2.5
Visual Turfgrass Growth, MEAN (irrigated putting green [2]; Trt. 4, 0.1 lb N/1000 sq. ft. /14 days, Sept. 25): 3.8
Visual Turfgrass Growth, MEAN (irrigated putting green [2]; [4]): 2.3
Visual Turfgrass Growth, MEAN (irrigated putting green [2]; Trt. 5, 0.05 lb N/1000 sq. ft. /14 days, Sept. 19): 2.8
Visual Turfgrass Growth, MEAN (irrigated putting green [2]; Trt. 5, 0.05 lb N/1000 sq. ft. /14 days, Sept. 25): 3.3
